From US20040037774A1, “Carrier for carrying radioactive substances and methods for using the same” (priority 2002, published 2004) come the findings set out here.

Assay [1] deals with human fibroblast cells (normal cells). The experiment in a line: Affinity test on R-phycoerythrin for normal cells (fluorescent microscopy). The assay is classed as cell-based. Particulars: 10, 20, 40 μg/ml R-phycoerythrin, 24-hour incubation, FIG. 3B-3D. On the procedure: (§1) R-phycoerythrin is complete dialyzed with 150 mM sodium phosphate buffer, and then serial dilution is carried out by using MEM medium as diluent to obtain the R-phycoerythrin dilutions of concentrations between 1-100 μg/ml.
(§2) The tumor cells are human neuroblastoma cells, and normal cells for comparison are human fibroblast cells. First, cells are maintained in MEM medium (pH 7.4) supplemented with 10% fetal bovine serum, and incubate at 37° C. and 95% humidity. Replace the MEM medium every two days. When carrying out cell subculture, first remove the medium, and rinse the cells once with sodium phosphate buffer. Then add 0.25% trypsin-EDTA to detach the cells from the surface of petri dish, and stop the reaction of trypsin-EDTA by giving proper amount of foregoing MEM medium, and thus the cell suspension is obtained. Secondly, seed 100,000 to 400,000 cells onto cover slips placed in a 12-well culture plate and incubate at 37° C. and 95% humidity for 16 hours.
(§3) Following is the affinity test on R-phycoerythrin for human fibroblast cells (normal cells) and human neuroblastoma cells (tumor cells). Take the 12-well culture plate with cells growing on cover slips mentioned in step 2. Remove the medium and rinse the cells once with sodium phosphate buffer. Add 1 mL of R-phycoerythrin dilutions mentioned in step 1 to the cells and follow with incubation at 37° C. and 95% humidity. […]

Assay [2] has as its system human neuroblastoma cells (tumor cells). The assay can be described thus: Affinity test on R-phycoerythrin for tumor cells (fluorescent microscopy). The format is cell-based. The following applies: 10, 20, 40 μg/ml R-phycoerythrin, 24-hour incubation, FIG. 4B-4D. How it is done: as §1, §2, §3

In the case of R-phycoerythrin, in assay [1], the “fluorescent signal in cells (accumulation of R-phycoerythrin)” value is reported as “no fluorescent signal is observed”. Moreover, in assay [2], the “strength of fluorescence signal in cells (accumulation of R-phycoerythrin)” value is on record as “in accordance with the increasing amount of R-phycoerythrin”.
